Reference: patent US10597399B2, “Substituted triazolopiperazine PARP inhibitor, preparation method therefor and use thereof” (Shanghai Institute of Materia Medica, Chinese Academy of …, priority 2015, dated 2020)

Columns and labels:
[1] = tested on: Capan-1 cells (BRCA2 gene defect); assay: Inhibition of proliferation of Capan-1 cells (CCK-8 and SRB method); conditions: Homo sapiens, CAPAN-1, read-out: Cellular IC50 (nM) Capan-1 (BRCA2gene defect)
[2] = tested on: MDA-MB-436 cells (BRCA1 gene defect); assay: Inhibition of proliferation of MDA-MB-436 cells (CCK-8 and SRB method); conditions: Homo sapiens, MDA-MB-436, read-out: Cellular IC50 (nM) MDA-MB-436 (BRCA1gene defect)
[3] = tested on: Capan-1/AZD2281 drug resistant cell; assay: cells; conditions: Homo sapiens
[4] = background statement; cited from earlier work
[5] = tested on: HCT-15 (colon cancer); assay: Proliferation of different tumor cells: HCT-15; conditions: for IC50: Homo sapiens
[6] = tested on: SW-620 (colon cancer); assay: Proliferation of different tumor cells: SW-620; conditions: for IC50: Homo sapiens
[7] = tested on: Capan-1 (pancreatic cancer); assay: Proliferation of different tumor cells: Capan-1; conditions: Homo sapiens
[8] = tested on: HCC-1937 (breast cancer); assay: Proliferation of different tumor cells: HCC-1937; conditions: for IC50: Homo sapiens, HCC1937
[9] = tested on: UWB1.289 (ovarian cancer); assay: Proliferation of different tumor cells: UWB1.289; conditions: for IC50: UWB1289
[10] = tested on: Capan-1 parental cell; assay: Anti-proliferative effect on Capan-1 parental cell; conditions: Homo sapiens
[11] = biological target: PARP-1 (Homo sapiens (Human), UniProt P09874); conditions: PARP-1 enzyme
Chain of PARP-1 (P09874 whole entry): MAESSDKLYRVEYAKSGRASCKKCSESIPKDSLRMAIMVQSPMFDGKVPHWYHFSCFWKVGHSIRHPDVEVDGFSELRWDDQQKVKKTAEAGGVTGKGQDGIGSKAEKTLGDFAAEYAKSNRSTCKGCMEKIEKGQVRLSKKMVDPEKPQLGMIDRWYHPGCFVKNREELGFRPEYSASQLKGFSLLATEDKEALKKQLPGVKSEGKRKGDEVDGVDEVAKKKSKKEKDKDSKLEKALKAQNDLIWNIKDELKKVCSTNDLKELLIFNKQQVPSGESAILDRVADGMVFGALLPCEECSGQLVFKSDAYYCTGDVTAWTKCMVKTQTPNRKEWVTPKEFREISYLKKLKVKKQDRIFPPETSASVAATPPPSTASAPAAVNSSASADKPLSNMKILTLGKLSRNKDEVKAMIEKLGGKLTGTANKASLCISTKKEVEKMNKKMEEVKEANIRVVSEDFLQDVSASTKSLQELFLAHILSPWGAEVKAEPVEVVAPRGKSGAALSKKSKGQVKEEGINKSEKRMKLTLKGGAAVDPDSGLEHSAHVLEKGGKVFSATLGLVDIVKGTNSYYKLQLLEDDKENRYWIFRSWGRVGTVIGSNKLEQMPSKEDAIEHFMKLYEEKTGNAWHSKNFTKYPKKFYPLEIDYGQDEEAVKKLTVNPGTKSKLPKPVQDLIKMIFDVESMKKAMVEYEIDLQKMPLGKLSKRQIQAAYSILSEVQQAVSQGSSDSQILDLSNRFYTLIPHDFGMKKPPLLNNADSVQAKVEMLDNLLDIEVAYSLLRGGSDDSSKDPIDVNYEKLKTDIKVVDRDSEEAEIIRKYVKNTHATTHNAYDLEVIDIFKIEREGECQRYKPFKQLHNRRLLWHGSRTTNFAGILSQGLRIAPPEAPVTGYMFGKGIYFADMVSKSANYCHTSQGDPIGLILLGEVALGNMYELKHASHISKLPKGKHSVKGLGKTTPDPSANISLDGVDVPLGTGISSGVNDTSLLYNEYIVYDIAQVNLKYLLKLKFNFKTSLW

Compound	IC50 [2] [nM]	IC50 [1] [nM]	further results
CC1CN(C(=O)c2cc(Cc3n[nH]c(=O)c4ccccc34)ccc2F)Cc2nnc(-c3c[nH]cn3)n21 (stereo not drawn) [Compound S8]	< 20	< 20	
CC1CN(C(=O)c2cc(Cc3n[nH]c(=O)c4ccccc34)ccc2F)Cc2nnc(-c3ccco3)n21 (stereo not drawn) [Compound S16]	< 5	< 5	
CC1CN(C(=O)c2cc(Cc3n[nH]c(=O)c4ccccc34)ccc2F)Cc2nnc(-c3ccccn3)n21 (stereo not drawn) [Compound S13]	< 5	< 5	IC50 [3]: < 0.000256 µM; Ratio IC50 AZD/IC50 S13 [5]: 70; IC50 [5]: 143 nM; Ratio IC50 AZD/IC50 S13 [6]: 130; IC50 [6]: 45 nM; IC50 [7]: 1.04 nM; Ratio IC50 AZD/IC50 S13 ([8]; HCC-1937): 338; IC50 [8]: 0.0219 µM; Ratio IC50 AZD/IC50 S13 ([9]; UWB1.289): 59; IC50 [9]: 3 nM; IC50 [10]: < 0.256 nM
C[C@@H]1CN(C(=O)c2cc(Cc3n[nH]c(=O)c4ccccc34)ccc2F)Cc2nnc(-c3ccccn3)n21 [S13-(+)]			activity of (+)-S13 relative to (−)-S13 [11]: twice
CC1CN(C(=O)c2cc(Cc3n[nH]c(=O)c4ccccc34)ccc2F)Cc2nnc(-c3nccs3)n21 (stereo not drawn) [Compound S15]	< 5	< 5	
CC1CN(C(=O)c2cc(Cc3n[nH]c(=O)c4ccccc34)ccc2F)Cc2nnc(-c3cncs3)n21 (stereo not drawn) [Compound S11]	< 20	< 20	
CC1CN(C(=O)c2cc(Cc3n[nH]c(=O)c4ccccc34)ccc2F)Cc2nnc(-c3ncc[nH]3)n21 (stereo not drawn) [Compound S9]	< 5	< 20	

More lines, main results first:

IC50 [2] [nM]	Compound	IC50 [1] [nM]	further results
< 20	CC1CN(C(=O)c2cc(Cc3n[nH]c(=O)c4ccccc34)ccc2F)Cc2nnc(-c3ncccc3F)n21 (stereo not drawn) [Compound S33]	< 20	
< 20	CC1CN(C(=O)c2cc(Cc3n[nH]c(=O)c4ccccc34)ccc2F)Cc2nnc(-c3nccn3C)n21 (stereo not drawn) [Compound S10]	< 20	
~200	O=C(c1cc(Cc2n[nH]c(=O)c3ccccc23)ccc1F)N1CCN(C(=O)C2CC2)CC1 [AZD2281, olaparib, reference compound]	~500	IC50 [3]: 41.1 ± 1.59 µM; bioavailability [4]: < 15%; in vivo action time and half-life time [4]: < 1 h; IC50 [5]: > 10000 nM; IC50 [6]: 5840 nM; IC50 [7]: 653 nM; IC50 [8]: 7.39 µM; IC50 [9]: 177 nM; IC50 [10]: 2899 ± 17 nM
< 20	CC1CN(C(=O)c2cc(Cc3n[nH]c(=O)c4ccccc34)ccc2F)Cc2nnc(-c3ccsc3)n21 (stereo not drawn) [Compound S12]	< 20	
< 20	CC1CN(C(=O)c2cc(Cc3n[nH]c(=O)c4ccccc34)ccc2F)Cc2nnc(-c3cnn(C)c3)n21 (stereo not drawn) [Compound S14]	< 20	
< 5	CC1CN(C(=O)c2cc(Cc3n[nH]c(=O)c4ccccc34)ccc2F)Cc2nnc(-c3cccs3)n21 (stereo not drawn) [Compound S7]	< 5	
< 5	CC1CN(C(=O)c2cc(Cc3n[nH]c(=O)c4ccccc34)ccc2F)Cc2nnc(-c3ccc(CO)o3)n21 (stereo not drawn) [Compound S18]	< 5	
< 200	CC1CN(C(=O)c2cc(Cc3n[nH]c(=O)c4ccccc34)ccc2F)Cc2nnc(C3CCNCC3)n21 (stereo not drawn) [Compound S3]	< 200	
< 20	CC1CN(C(=O)c2cc(Cc3n[nH]c(=O)c4ccccc34)ccc2F)Cc2nnc(-c3cnccn3)n21 (stereo not drawn) [Compound S20]	< 20	
